# Assay results taken from patent publication US10023519B2, “Cyclobutane containing carboxylic acid GPR120 modulators” (BRISTOL-MYERS SQUIBB COMPANY, priority 2014, dated 2018).
# pEC50: −log10 of the molar value.
# Target: human GPR120 (Homo sapiens (Human), UniProt Q5NUL3)
# Assay: GPR120 pERK AlphaScreen SureFire Assay (human)
# Type: cell-based
# Settings: CHO cells stably transfected with short form of human GPR120
# From the text: GPR120 activity was monitored by measuring phosphorylation of ERK (pERK), since G protein receptors are known to activate the ERK signaling cascade either directly and/or through recruitment of arrestin that serves as a scaffold for downstream signaling events.
# GPR120 pERK AlphaScreen SureFire Assay
# The human and mouse GPR120-mediated intracellular phosphorylated ERK assays were established using CHOA12 cells stably transfected with the short form of human or mouse GPR120 receptor. […] Cells were cryo preserved at a concentration of 2×10^7 cells/mL, in 90% Charcoal/Dextran FBS and 10% DMSO, and frozen in liquid nitrogen at a low passage number.
# The flasks were placed in a tissue culture incubator overnight (37° C., 5% CO2). […] The next day, cells were serum starved in 30 μL of F-12 media without any serum or antibiotics for 2 hours at 37° C.
# Cells were then stimulated with 50 nL of compound dilutions using ECHO liquid handler for 7 minutes at 37° C.
# (§1) The lysis buffer was diluted 5-fold with water before use. […] The SureFire assay reagent mix was prepared by mixing 60 parts Reaction Buffer, 10 parts Activation Buffer, 1 part Donor Beads, 1 part Acceptor Beads (Perkin Elmer Cat. #TGRES10K). 3.5 μL/well of this reagent mix was manually added to the proxiplate with a multichannel pipettor. Plates were spun down at 1000 rpm for 2 minutes, followed by light-protected incubation at room temperature for 2 hours. The plates were read on the Alpha-technology compatible Envision multilabel plate reader using AlphaScreen protocol according to manufacturer's specifications. The agonist effect of compounds was expressed as 100× (average sample−average blank)/(average total−average blank) where sample is the luminescence activity in the presence of test compound, blank is equal to the luminescence activity in the presence of DMSO control and the total is signal induced by 50 μM linolenic acid as reference compound. Activation data for the test compound over a range of concentrations was plotted as percentage activation of the test compound (100%=maximum response). After correcting for background, EC50 values were determined.
# The human and mouse GPR120-mediated intracellular phosphorylated ERK assays were also established using CHO-K1 cells stably transfected with the short form of human or mouse GPR120 receptor. […] Cells were cryo preserved at a concentration of 3×10^6 cells/mL, in 70% F-12, 20% Charcoal/Dextran FBS and 10% DMSO, and frozen in liquid nitrogen at a low passage number.
# The flasks were placed in a tissue culture incubator overnight (37° C., 5% CO2).
# Cells were then stimulated with 40 nL of compound dilutions using ECHO liquid handler for 7 minutes at 37° C.
# as §1, with “compound.” for “compound. Activation data for the test compound over a range of concentrations was plotted as percentage activation of the test compound (100%=maximum response). After correcting for background, EC50 values were determined.”
# Activation data for the test compound over a range of concentrations was plotted as percentage activation of the test compound (100%=maximum response). After correcting for background, EC50 values were determined.
# Sequence of human GPR120 (Q5NUL3 whole entry): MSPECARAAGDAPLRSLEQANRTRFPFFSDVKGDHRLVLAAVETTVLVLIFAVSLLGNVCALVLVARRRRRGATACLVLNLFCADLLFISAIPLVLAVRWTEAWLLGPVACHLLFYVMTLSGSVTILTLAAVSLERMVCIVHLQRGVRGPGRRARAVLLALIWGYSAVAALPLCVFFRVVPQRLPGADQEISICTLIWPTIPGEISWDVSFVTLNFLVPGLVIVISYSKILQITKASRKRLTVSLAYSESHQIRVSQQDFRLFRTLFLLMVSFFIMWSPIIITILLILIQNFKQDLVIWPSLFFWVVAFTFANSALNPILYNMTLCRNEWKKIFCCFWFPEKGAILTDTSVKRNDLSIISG
row,Compound,pEC50
1,"O=C(O)[C@H]1C[C@@H]1COCC1CC(c2cccc(Oc3ccccc3)c2)C1 (relative stereo) [Example 63, Trans-2-(((3-(3-phenoxyphenyl)cyclobutyl)methoxy)methyl)cyclopropanecarboxylic acid]",5.90
2,"O=C(O)CO[C@H]1C[C@@H](c2ccc(-c3cc(OC(F)(F)F)ccc3Cl)cc2)C1 [Example 8, Cis-2-(3-(2′-chloro-5′-(trifluoromethoxy)-[1,1′-biphenyl]-4-yl)cyclobutoxy)acetic acid]",6.05
3,"CC(C)Oc1ccc(F)c(-c2ccc(CC3CC(C(=O)O)C3)cc2)c1 (single isomer, unassigned) [Example 49, 3-((2′-Fluoro-5′-isopropoxy-[1,1′-biphenyl]-4-yl)methyl)cyclobutanecarboxylic acid]",6.30
4,"O=C(O)CO[C@H]1C[C@@H](c2ccc(-c3cc(Oc4ccc(F)cc4)cc(F)c3F)cc2)C1 [Example 34, Cis-2-(3-(2′,3′-difluoro-5′-(4-fluorophenoxy)-[1,1′-biphenyl]-4-yl)cyclobutoxy)acetic acid]",6.62
5,"O=C(O)CO[C@H]1C[C@@H](c2ccc(-c3cc(OC4CCCOC4)ccc3F)cc2)C1 (stereo partly drawn) [Example 30, Cis2-(3-(2′-fluoro-5′-((tetrahydro-2H-pyran-3-yl)oxy)-[1,1′-biphenyl]-4-yl)cyclobutoxy)acetic acid]",5.85
6,"O=C(O)COCCC[C@H]1C[C@@H](c2cccc(Oc3ccccc3)c2)C1 [Example 58, 2-(3-(Cis-3-(3-phenoxyphenyl)cyclobutyl)propoxy)acetic acid]",6.38
7,"Cc1ccc(Oc2ccc(F)c(-c3ccc([C@H]4C[C@@H](OCC(=O)O)C4)cc3)c2)cc1 [Example 31, Cis-2-(3-(2′-fluoro-5′-(p-tolyloxy)-[1,1′-biphenyl]-4-yl)cyclobutoxy)acetic acid]",6.15
8,"C[C@]1(CCCOCC(=O)O)C[C@H](c2cccc(Oc3ccccc3)c2)C1 [Example 61, 2-(3-(Trans-1-methyl-3-(3-phenoxyphenyl)cyclobutyl)propoxy)acetic acid]",6.82
9,"CC(C)Oc1ccc(F)c(-c2ccc([C@H]3C[C@@H](OCC(=O)O)C3)cc2)c1F [Example 15, Cis-2-(3-(2′,6′-difluoro-3′-isopropoxy-[1,1′-biphenyl]-4-yl)cyclobutoxy)acetic acid]",6.10
10,"CC(C)Sc1ncc(C(F)(F)F)cc1-c1ccc([C@H]2C[C@@H](OCC(=O)O)C2)cc1 [Example 13, Cis-2-(3-(4-(2-(isopropylthio)-5-(trifluoromethyl)pyridin-3-yl)phenyl)cyclobutoxy)acetic acid]",5.58
11,"CC(C)Oc1ccc(F)c(-c2ccc(CC3CC(C(=O)O)C3)cc2)c1 (single isomer, unassigned) [Example 48, 3-((2′-Fluoro-5′-isopropoxy-[1,1′-biphenyl]-4-yl)methyl)cyclobutanecarboxylic acid]",6.10
12,"Cc1ccc(Oc2ccc(F)c(-c3ccc([C@H]4C[C@@H](OCC(=O)O)C4)cc3)c2)nn1 [Example 29, Cis-2-(3-(2′-fluoro-5′-((6-methylpyridazin-3-yl)oxy)-[1,1′-biphenyl]-4-yl)cyclobutoxy)acetic acid]",5.30
13,"CC(C)Oc1ccc(F)c(-c2ccc(C[C@H]3C[C@H](CC(=O)O)C3)cc2)c1 [Example 52, 2-(Trans-3-((2′-fluoro-5′-isopropoxy-[1,1′-biphenyl]-4-yl)methyl)cyclobutyl)acetic acid]",6.03
14,"C[C@]1(CCCOCCC(=O)O)C[C@@H](c2cccc(Oc3ccccc3)c2)C1 [Example 62, 3-(3-(Cis-1-methyl-3-(3-phenoxyphenyl)cyclobutyl)propoxy)propanoic acid]",6.24
15,"O=C(O)CO[C@H]1C[C@@H](c2ccc(-c3cc(Oc4ccccn4)ccc3F)cc2)C1 [Example 26, Cis-2-(3-(2′-fluoro-5′-(pyridin-2-yloxy)-[1,1′-biphenyl]-4-yl)cyclobutoxy) acetic acid]",6.31
16,"O=C(O)CO[C@H]1C[C@@H](c2ccc(-c3cc(Oc4ccncc4)ccc3F)cc2)C1 [Example 25, Cis-2-(3-(2′-fluoro-5′-(pyridin-4-yloxy)-[1,1′-biphenyl]-4-yl)cyclobutoxy)acetic acid]",5.72
17,"O=C(O)COCCC[C@H]1C[C@@H](OCc2cccc(Oc3ccccc3)c2)C1 [Example 59, 2-(3-(Cis-3-(3-phenoxybenzyloxy)cyclobutyl)propoxy)acetic acid]",6.28
18,"O=C(O)COCC1CC(OCc2cccc(Oc3ccccc3)c2)C1 (stereo not drawn) [Example 54, 2-((3-(3-Phenoxybenzyloxy)cyclobutyl)methoxy)acetic acid]",5.41
19,"CC(C)Oc1ccc(F)c(-c2ccc([C@H]3C[C@@H](CCC(=O)O)C3)cc2)c1 [Example 46, Cis-3-(3-(2′-fluoro-5′-isopropoxy-[1,1′-biphenyl]-4-yl)cyclobutyl)propanoic acid]",6.19
20,"O=C(O)C[C@H]1C[C@H](Oc2ccc(-c3cc(Oc4ccccc4)ccc3F)cc2)C1 [Example 66, Trans-2-(3-((2′-fluoro-5′-phenoxy-[1,1′-biphenyl]-4-yl)oxy)cyclobutyl)acetic acid]",6.96
21,"Cc1ccc(Oc2cc(F)c(F)c(-c3ccc([C@H]4C[C@@H](OCC(=O)O)C4)cc3)c2)cc1 [Example 38, Cis-2-(3-(2′,3′-difluoro-5′-(p-tolyloxy)-[1,1′-biphenyl]-4-yl)cyclobutoxy)acetic acid]",6.27
22,"O=C(O)[C@H]1CC1[C@H]1C[C@@H](c2ccc(-c3cc(Oc4ccccc4)ccc3F)cc2)C1 (stereo in doubt) [Example 40, 2-(3-(2′-Fluoro-5′-phenoxy-[1,1′-biphenyl]-4-yl)cyclobutyl)cyclopropanecarboxylic acid]",5.03
23,"O=C(O)CO[C@H]1C[C@@H](c2ccc(-c3cc(Oc4cccnc4)ccc3F)cc2)C1 [Example 28, Cis-2-(3-(2′-fluoro-5′-(pyridin-3-yloxy)-[1,1′-biphenyl]-4-yl)cyclobutoxy) acetic acid]",6.18
24,"CC(C)Oc1ccc(F)c(-c2ccc(C3CC4(C3)CC4C(=O)O)cc2)c1 (single isomer, unassigned) [Example 42, 5-(2′-Fluoro-5′-isopropoxy-[1,1′-biphenyl]-4-yl)spiro[2.3]hexane-1-carboxylic acid]",5.66
25,"Cc1nc(-c2ccc(F)c(-c3ccc([C@H]4C[C@@H](OCC(=O)O)C4)cc3)c2)no1 [Example 21, Cis-2-(3-(2′-Fluoro-5′-(5-methyl-1,2,4-oxadiazol-3-yl)-[1,1′-biphenyl]-4-yl)cyclobutoxy)acetic acid]",6.26
26,"Cc1cc(OC(C)C)cc(-c2ccc([C@H]3C[C@@H](OCC(=O)O)C3)cc2)c1 [Example 12, Cis-2-(3-(3′-isopropoxy-5′-methyl-[1,1′-biphenyl]-4-yl)cyclobutoxy) acetic acid]",6.37
27,"COc1cc(Cl)cc(-c2ccc([C@H]3C[C@@H](OCC(=O)O)C3)cc2)c1 [Example 6, Cis-2-(3-(3′-chloro-5′-methoxy-[1,1′-biphenyl]-4-yl)cyclobutoxy)acetic acid]",6.06
28,"CC(C)Oc1cccc(-c2ccc([C@H]3C[C@@H](OCC(=O)O)C3)cc2)c1F [Example 10, Cis-2-(3-(2′-fluoro-3′-isopropoxy-[1,1′-biphenyl]-4-yl)cyclobutoxy) acetic acid]",5.99
29,"CC1(C)Cc2cc(Cl)cc(-c3ccc([C@H]4C[C@@H](OCC(=O)O)C4)cc3)c2O1 [Example 24, Cis-2-(3-(4-(5-chloro-2,2-dimethyl-2,3-dihydrobenzofuran-7-yl)phenyl)cyclobutoxy) acetic acid]",5.54
30,"CC(C)Oc1ccc(F)c(-c2ccc(C3CC4(C3)CC4C(=O)O)cc2)c1 (single isomer, unassigned) [Example 41, 5-(2′-Fluoro-5′-isopropoxy-[1,1′-biphenyl]-4-yl)spiro[2.3]hexane-1-carboxylic acid]",4.49
